Measured values as given in US9180115B2, “Cyclohexylamines” (Asana Biosciences, LLC, priority 2011, dated 2015).
Several values for one entry are separate records, joined by “and”; a condition that tells them apart may be missing. Identical values can stand only once. Like-named read-outs stand apart in the source and are kept apart here.

How the values were obtained:
[1] = tested on: sodium channel response in hTRPV1-N1E115 cells; assay: FLIPR membrane potential assay of sodium channel response in hTRPV1-N1E115 cells with or without heat (47° C.) activation; type: cell-based; details: for hTRPV1-N1E Nav 0.1 mM (% inhibition) 25° C. / hTRPV1-N1E Nav 1 mM (% inhibition) 25° C.: 25° C. (no heat activation); for hTRPV1-N1E Nav 0.1 mM (% inhibition) 47° C. / hTRPV1-N1E Nav 1 mM (% inhibition) 47° C.: 47° C. (heat activated); for IC50: read-out: hTRPV1-N1E IC50 (μM) 47° C.
Description: In one embodiment, a modified FLIPR® (Fluorometric Imaging Plate Reader) based assay system was developed which is capable of discriminating between non-specific versus hTRPV1-mediated entry of test compounds. Advantageously, the assay system utilizes heat activated opening of hTRPV1 channels followed by an assessment of internal sodium channel block. The assay allows a permanently charged compound to selectively enter through opened hTRPV1 channels and that compound's potency in inhibiting sodium channels from the cytoplasm side of the same cell can be assessed and quantified.
The test compounds are diluted in the Assay Buffer and added to each well of a specific 384-well ‘compound plate’, which serves as a source plate for compound addition using the FLIPR® platform. The concentration of compounds in the compound-plate was adjusted to achieve the desired final concentration when added to the cells in the ‘cell-plate’. After completion of the dye incubation period, the dye loaded cell-plates and the compound source plates are inserted into the FLIPR® Tetra device with a 384 FLIPR® tip box (Molecular Devices, Inc.) according to manufacturer's instructions. The compounds are robotically added to the dye loaded cell-plates using software integral to the FLIPR® Tetra instrument.
Immediately following compound addition, hTRPV1 is activated, in one of the duplicate cell plates, by heating. Specifically, entire multi-well plate containing the compound-cells mixture is incubated at 47° C. for 10 minutes, after which they are returned to room temperature (about 25° C.) for a further 30 minutes. Heat activation of hTRPV1 was omitted from the replicate cell plate which was simply maintained at room temperature for the entire 40 minutes.
A membrane potential response is elicited in the dye- and compound-loaded cells by the addition of veratridine which is a known sodium channel ‘agonist’. As illustrated in an example herein, an agonist plate containing veratridine (Sigma) is prepared in advance and is inserted into suitable devices such as, e.g., the FLIPR® TETRA device for a “2nd addition” as instructed by the manufacturer. The concentration of veratridine in the ‘agonist plate’ was adjusted to achieve a final concentration of 100 μM when added to the cells in the cell-plate. Final concentrations of veratridine greater or lesser than 100 μM may also be used but the signal measured by the FLIPR® TETRA device or another suitable device may vary accordingly.
The exposure of the cells in the cell-plate to veratridine induces sodium channels in the cells to open and the resulting ion flux produces a membrane potential depolarization that is detected as a fluorescence signal by the FLIPR® Tetra Device. The activity of test compounds is determined by their ability to attenuate the veratridine-induced fluorescence signal, the most promising compounds are those that show an enhanced activity in the heat-activated cell plate over the non-heat-activated cell plate. This differential activity reflects enhanced compound uptake via the heat activated and open hTRPV1 channels and rests on the fact that sodium channel block requires test compounds to act from the cytoplasmic side of the cell membrane.
In vitro assays were developed for assessing the inhibition of sodium channel response with compounds following stimulation by heat (47° C.) in cells expressing hTRPV1.
(v) Membrane potential Assay to Assess Sodium Channel Function in hTRPV1-Expressing Cells • Cells were plated at 5000 per 50 μL [DMEM+10% FBS+300 μg/mL H\hygromycin] per well, in a 384 clear bottom poly-D-lysine coated plate and incubated at 37° C. and 5% CO2 for 48 hours. On the day of the assay, media were discarded gently and 30 μL of the dye [FMP blue dye was prepared in assay buffer] per well was added and dye-loading was allowed to proceed for 20 min at room temperature. […]

[2] = target: T1, human Nav1.5 sodium channel (Homo sapiens, UniProt Q14524); assay: FLIPR membrane potential assay in hNav1.5-HEK293 cells; type: cell-based
T1 construct: host or cells: HEK-293
T1 sequence (Q14524 whole entry): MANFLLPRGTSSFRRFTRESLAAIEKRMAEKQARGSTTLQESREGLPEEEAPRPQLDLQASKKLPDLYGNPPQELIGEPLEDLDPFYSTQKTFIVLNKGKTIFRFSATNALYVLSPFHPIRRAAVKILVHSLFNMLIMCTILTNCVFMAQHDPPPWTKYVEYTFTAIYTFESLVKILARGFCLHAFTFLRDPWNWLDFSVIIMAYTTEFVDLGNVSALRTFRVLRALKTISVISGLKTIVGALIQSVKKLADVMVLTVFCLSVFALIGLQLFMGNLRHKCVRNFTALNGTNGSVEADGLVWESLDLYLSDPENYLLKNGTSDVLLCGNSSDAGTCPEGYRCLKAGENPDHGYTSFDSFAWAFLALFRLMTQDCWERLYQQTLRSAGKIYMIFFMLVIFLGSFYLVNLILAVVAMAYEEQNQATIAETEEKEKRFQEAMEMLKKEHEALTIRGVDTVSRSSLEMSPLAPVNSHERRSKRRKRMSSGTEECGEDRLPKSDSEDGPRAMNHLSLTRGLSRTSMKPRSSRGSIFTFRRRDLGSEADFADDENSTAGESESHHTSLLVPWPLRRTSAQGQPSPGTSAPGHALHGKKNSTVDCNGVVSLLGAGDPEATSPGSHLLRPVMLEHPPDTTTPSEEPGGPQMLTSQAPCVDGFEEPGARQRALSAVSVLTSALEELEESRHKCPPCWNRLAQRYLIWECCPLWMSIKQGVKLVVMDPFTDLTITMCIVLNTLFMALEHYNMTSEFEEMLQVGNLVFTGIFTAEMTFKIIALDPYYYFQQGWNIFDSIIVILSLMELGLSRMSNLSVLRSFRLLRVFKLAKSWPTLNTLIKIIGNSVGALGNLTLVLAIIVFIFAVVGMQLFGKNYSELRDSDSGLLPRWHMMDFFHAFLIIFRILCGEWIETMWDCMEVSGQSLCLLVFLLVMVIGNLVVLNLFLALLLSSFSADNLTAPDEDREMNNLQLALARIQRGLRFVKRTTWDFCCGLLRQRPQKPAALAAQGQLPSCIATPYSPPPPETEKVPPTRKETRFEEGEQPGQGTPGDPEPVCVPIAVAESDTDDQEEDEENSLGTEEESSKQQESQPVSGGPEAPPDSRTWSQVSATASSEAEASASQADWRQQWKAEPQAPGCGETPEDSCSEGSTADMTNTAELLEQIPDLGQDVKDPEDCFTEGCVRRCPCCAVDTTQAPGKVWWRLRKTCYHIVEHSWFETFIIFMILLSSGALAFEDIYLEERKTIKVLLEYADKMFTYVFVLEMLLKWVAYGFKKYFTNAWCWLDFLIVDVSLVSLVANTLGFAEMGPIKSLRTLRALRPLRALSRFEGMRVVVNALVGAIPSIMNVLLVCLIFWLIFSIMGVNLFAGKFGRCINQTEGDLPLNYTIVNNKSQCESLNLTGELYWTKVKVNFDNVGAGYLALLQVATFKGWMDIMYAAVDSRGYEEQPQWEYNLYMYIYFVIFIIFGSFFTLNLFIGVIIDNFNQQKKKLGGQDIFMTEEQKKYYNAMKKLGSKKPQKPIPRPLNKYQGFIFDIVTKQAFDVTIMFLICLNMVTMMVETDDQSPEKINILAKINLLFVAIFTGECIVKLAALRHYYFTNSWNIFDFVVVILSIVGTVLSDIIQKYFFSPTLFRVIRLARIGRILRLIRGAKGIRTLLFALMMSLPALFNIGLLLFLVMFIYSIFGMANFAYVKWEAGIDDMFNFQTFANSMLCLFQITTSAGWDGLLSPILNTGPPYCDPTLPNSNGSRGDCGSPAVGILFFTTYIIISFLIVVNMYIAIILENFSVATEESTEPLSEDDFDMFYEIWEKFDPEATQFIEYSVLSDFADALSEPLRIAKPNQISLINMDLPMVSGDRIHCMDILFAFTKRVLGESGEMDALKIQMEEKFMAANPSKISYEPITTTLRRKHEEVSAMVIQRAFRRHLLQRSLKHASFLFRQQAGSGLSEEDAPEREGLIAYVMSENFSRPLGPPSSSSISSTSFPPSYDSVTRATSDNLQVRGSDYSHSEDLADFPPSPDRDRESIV
Experimental: C. Method for Assessing the Extent of Inhibition of Sodium Channel Response with Compounds in hNav1.5-HEK293 Cells.
The following assay was used to assess the tendency of the test compounds to block the dominant cardiac sodium channel isoform. Nav1.5 sodium channels are known to be permeable to quaternary sodium channel blockers such as QX-314 and, thus, the assay was performed in the absence of a chemical TRPV1 agonist.
The hNav1.5-HEK-293 cells (CreaCell, France, a human embryonic kidney cell line expressing the human Nav1.5 sodium channel) were cultured in Growth medium (containing 1×DMEM (Gibco)+10% FBS (PAA Gold)+2% glutamine 100 mM (Gibco)+1% penicillin 10,000 U/mL streptomycin 10,000 μg/mL (Invitrogen)+1.2 mg/mL Geneticin® G418 (Invitrogen)) in 75 mL cell bind flasks (Corning). The following steps were followed exactly as mentioned. The spent medium was discarded and the cells rinsed once with PBS-1×. Accutase® (1-2 mL; PAA) solution was added. The plate was placed on a 37° C. warming incubator 3-5 minutes. As soon as cells are detached, 37° C. complete medium (9 mL) was added. The cell suspension is drawn into a sterile pipette and cells homogenized gently to dissociate cell aggregates. The cells were counted using a hemocytometer with Blue Trypan and then centrifuged 5 minutes at 400 g. The cells can be amplified or maintained by seeding […] in a T75 flask (final volume: 15 mL). 8000 cells in 50 μL Growth medium was added to each well of 384-well, clear bottomed, sterile poly-D-lysine coated plates with lid (Greiner-bio one) inside the laminar air-flow. The plates were incubated at 37° C. and 5% CO2 in a CO2 incubator (Thermo) for 48 hours.
On the day of the assay, cells were washed with Assay buffer, which was prepared using the components and amounts in the following Table 5. pH was adjusted to 7.4 with NaOH, volume made up to 500 mL with Milli-Q® water.
Assay Buffer was added to the cells and incubated at rt (25° C.) for 10 minutes. The compounds were diluted in assay buffer. The compounds were added and incubated at rt (25° C.) for 10 minutes. Red FMP Dye (MDC) was added to the cells and the plate was incubated at rt (25° C.) for 30 minutes. Veratridine stock (20 mM; Sigma) was prepared in DMSO; veratridine (final concentration of 30 μM) in assay buffer was added to each well of the cell seeded plates in the FLIPR and read taken for 10 minutes. The following table provides data illustrating the sodium channel activity of the test compounds in response to the presence or absence of heat stimulation in cells expressing hTRPV1. The compounds were tested for differential activity at 25° C. and 47° C. and at two test concentrations.

[3] = tested on: Male Sprague Dawley (SD) rats; assay: In vivo assay of mechanical nociception (rat pinch model, perisciatic injection)
[4] = read-out: HEK Nav 1.5 IC50 (μM) (AVG)
[5] = test compound 0.5%, lidocaine 2%, injection 100 μL
[6] = test compound 0.5%, lidocaine 2%, injection 200 μL

IC50 ([1]; 47° C.)	SMILES	hTRPV1-N1E Nav 0.1 mM (% inhibition) 25° C. [1]	hTRPV1-N1E Nav 0.1 mM (% inhibition) 47° C. [1]	IC50 [2, 4]	Average Time of Analgesia [3, 6]	IC50 ([2]; HEK Nav 1.5 IC50 (μM) (AVG))	other results
10 to 100 µM	CC(C[N+](C)(C)C1CCCCC1)OC(=O)c1sc2ccccc2c1Cl.[I-] (stereo not drawn) [Example 31, N-[2-((3-Chloro-benzo[b]thiophene-2-carbonyl)oxy)propyl]-N,N-dimethyl-cyclohexanaminium iodide]	27 (N = 4) %	94 (N = 4) %	160 µM	–	–	–
10 to 100 µM	CC1CCC([N+](C)(C)CC(C)OC(=O)c2ccc(C(C)(C)C)cc2)CC1.[I-] (stereo not drawn) [Example 38, N-[2-((4-(tert-butyl)benzoyl)oxy)propyl]-N,N,4-trimethylcyclo-hexanaminium iodide]	75 (N = 4) %	95 (N = 4) %	54 µM	–	–	–
10 to 100 µM	Cc1cc(C)c(C(=O)OC(C)C[N+](C)(C)C2CCC(C)CC2)c(C)c1.[I-] (stereo not drawn) [Example 39, N,N,4-Trimethyl-N-[2-((2,4,6-trimethyl-benzoyl)oxy)propyl] cyclohexanaminium iodide]	41 (N = 4) %	7 (N = 4) %	89 µM	–	–	–

Continued, molecule first:

SMILES	IC50 ([1]; 47° C.)	hTRPV1-N1E Nav 0.1 mM (% inhibition) 25° C. [1]	hTRPV1-N1E Nav 0.1 mM (% inhibition) 47° C. [1]	IC50 [2, 4]	Average Time of Analgesia [3, 6]	IC50 ([2]; HEK Nav 1.5 IC50 (μM) (AVG))	other results
Cc1cc(C)c(C(=O)OC(C)C[N+](C)(C)C2CCCCC2)c(C)c1.[I-] (stereo not drawn) [Example 1, N,N-dimethyl-N-[2-((2,4,6-trimethylbenzoyl)oxy)propyl]cyclohexanaminium iodide]	10 to 100 µM	13 (N = 4) %	73 (N = 4) %	240 µM	–	–	hTRPV1-N1E Nav 1 mM (% inhibition) 25° C. [1]: 53 (N = 4) %; hTRPV1-N1E Nav 1 mM (% inhibition) 47° C. [1]: 92 (N = 4) %; Average Time of Analgesia [3, 5]: 7 h
CC(C[N+](C)(C)C1CCCCC1)OC(=O)c1ccccc1C(C)C.[I-] (stereo not drawn) [Example 2, N-[2-((2-isopropylbenzoyl)oxy)propyl]-N,N-dimethylcyclohexanaminium iodide]	10 to 100 µM	23 (N = 4) %	77 (N = 4) %	188 µM	12 h	–	hTRPV1-N1E Nav 1 mM (% inhibition) 25° C. [1]: 78 (N = 4) %; hTRPV1-N1E Nav 1 mM (% inhibition) 47° C. [1]: 89 (N = 4) %
C[C@@H](C[N+](C)(C)C1CCCCC1)OC(=O)c1ccc(C(C)(C)C)cc1.[Br-] [Example 5, (S)—N-[2-((4-(tert-butyl)benzoyl)oxy)propyl]-N,N-dimethylcyclohexanaminium bromide]	10 to 100 µM	45 (N = 4) %	–	–	–	305 µM	paw withdrawal vocalization force ([3]; 0.45% solution with 2% lidocaine, FIG. 1): remained at cut-off for the duration of the experiment; Average Time of Analgesia ([3]; test compound 0.2%, lidocaine 2%, injection 200 μL): 2 h; Average Time of Analgesia ([3]; test compound 0.3%, lidocaine 2%, injection 200 μL): 24 h; Average Time of Analgesia ([3]; test compound 0.4%, lidocaine 2%, injection 200 μL): 44 h; Average Time of Analgesia ([3]; test compound 0.45%, lidocaine 2%, injection 200 μL): >64 h
Cc1cccc(C)c1C(=O)OC(C)C[N+](C)(C)C1CCCCC1.[I-] (stereo not drawn) [Example 6, N-[2-((2,6-Dimethylbenzoyl)oxy)propyl]-N,N-dimethylcyclohexanaminium iodide]	–	–	–	684 µM	14 h and 10 h	–	hTRPV1-N1E Nav (% inhibition) 25° C., 0.5 mM ([1]; 0.5 mM, 25° C.): 24 (N = 2, %; hTRPV1-N1E Nav (% inhibition) 47° C., 0.5 mM ([1]; 0.5 mM, 47° C.): 80 (N = 2, %; hTRPV1-N1E Nav (% inhibition) 25° C., 5 mM ([1]; 5 mM, 25° C.): 58 (N = 2, %; hTRPV1-N1E Nav (% inhibition) 47° C., 5 mM ([1]; 5 mM, 47° C.): 92 (N = 2, %; hTRPV1-N1E IC50 (μM) 47° C. ([1]; 47° C.): B ′; inhibition at 10 min, 0.5 mM ([2]; human, hNav1.5-HEK293 cells (HEK-293 cells expressing human Nav1.5), pH 7.4, 0.5 mM, read-out: HEK Nay 1.5% inh. @ 0.5 mM): 30%; inhibition at 10 min, 1.5 mM ([2]; human, hNav1.5-HEK293 cells (HEK-293 cells expressing human Nav1.5), pH 7.4, 1.5 mM, read-out: HEK Nav 1.5% inh. @ 1.5 mM): 68%; analgesic effects in the absence of lidocaine ([3]; absence of lidocaine): analgesic effects of significant duration; Average Time of Analgesia ([3]; test compound 0.5%, lidocaine 0%, injection 200 μL): 5 h; Average Time of Analgesia [3, 5]: 8 h
CC(C[N+](C)(C)C1CCCCC1)OC(=O)c1ccc(C(C)(C)C)cc1.[I-] (stereo not drawn) [Example 12, N-[2-((4-(tert-Butyl)benzoyl)oxy)propyl]-N,N-dimethyl-cyclohexanaminium iodide]	10 to 100 µM	25 (N = 4) %	84 (N = 4) %	–	0.5 h	134 µM	hTRPV1-N1E Nav 1 mM (% inhibition) 25° C. [1]: 17 (N = 4) %; hTRPV1-N1E Nav 1 mM (% inhibition) 47° C. [1]: 88 (N = 4) %
C[C@@H](C[N+](C)(C)C1CCCCC1)OC(=O)c1ccc(C(C)(C)C)cc1.[I-] [Example 46, (S)-N-[2-((4-(tert-butyl)benzoyl)oxy)propyl]-N,N-dimethylcyclo-hexanaminium iodide]	–	40 (N = 4) %	–	–	24 h	232 µM	–
C[C@H](C[N+](C)(C)C1CCCCC1)OC(=O)c1ccc(C(C)(C)C)cc1.[I-] [Example 47, (R)-N-[2-((4-(tert-butyl)benzoyl)oxy)propyl]-N,N-dimethylcyclo-hexanaminium iodide]	10 to 100 µM	54 (N = 4) %	–	–	24 h	255 µM	–
C[C@H](C[N+](C)(C)C1CCCCC1)OC(=O)c1ccc(C(C)(C)C)cc1.[Br-] [Example 48, (R)-N-[2-((4-(tert-butyl)benzoyl)oxy)propyl]-N,N-dimethylcyclo-hexanaminium bromide]	10 to 100 µM	48 (N = 4) %	–	–	–	252 µM	–
